According to patent US11787800B2, “BRD9 degraders and uses thereof” (Foghorn Therapeutics Inc., priority 2020, dated 2023):

Tests used:
Assay type in all cases: cell-based
[1] = test system: synovial sarcoma cell lines (SYO1, Yamato, HS-SY-II, and ASKA); assay: Growth of synovial sarcoma cell lines (IncuCyte confluency, crystal violet staining, colony imaging), Example 3; details: FIGS. 5, 6, 7, 1 μM in crystal violet assay
Description: (§1) Growth medium and compounds were refreshed every 3-4 days.
(§2) The number of cells was optimized for each cell line. Growth medium and compounds were refreshed every 3-5 days. SYO1, Yamato, A549, 293T and HS-SY-II cells were fixed and stained at day 11. ASKA cells were fixed and stained at day 23. Staining was done by incubation with crystal violet solution (0.5 g Crystal Violet, 27 ml 37% Formaldehyde, 100 mL 10×PBS, 10 mL Methanol, 863 dH20 to 1 L) for 30 min followed by 3× washes with water and drying the plates for at least 24 h at room temperature. Subsequently plates were scanned on an Odyssey CLx Imaging system (FIG. 6).
(§3) Cells were seeded into 96-well ultra low cluster plate (Costar, #7007) in 200 μL complete media and treated at day 2 with DMSO, Staurosporin, or BRD9 degarder, Compound 1, at indicated doses (FIG. 7). Media and compounds were changed every 5 d and cell colonies were imaged at day 14.

[2] = test system: synovial sarcoma cell lines (SYO1, HS-SY-II, and ASKA); assay: Crystal violet growth assay, day 14, synovial sarcoma cell lines, Example 4; details: for growth of synovial sarcoma cell lines: SYO1, HS-SY-II, ASKA, daily treatment, day 14, crystal violet, FIGS. 8 and 9
Description: (§4) Procedure: Cells were seeded into 6-well or 12-well plates and were treated daily with a BRD9 degrader (Compound 1), a bromo-domain BRD9 binder (Compound 2), E3 ligase binder (lenalidomide), DMSO, or staurosporin (positive control for cell killing), at indicated concentrations. The number of cells was optimized for each cell line. Growth media was refreshed every 5 days. By day 14, medium was removed, cells were washed with PBS, and stained using 500 μL of 0.005% (w/v) crystal violet solution in 25% (v/v) methanol for at least 1 hour at room temperature. Subsequently plates were scanned on an Odyssey CLx Imaging system.

SYO1 cells [3] = assay: Apoptosis assay, Annexin V-FITC Apoptosis Detection Kit; details: 200 nM or 1 μM, 8 days, compared to DMSO controls
Description: (§5) Compounds were refreshed every 5 days. Cell cycle analysis was performed using the Click-iT™ Plus EdU Flow Cytometry Assay (Invitrogen). The apoptosis assay was performed using the Annexin V-FITC Apoptosis Detection Kit (Sigma A9210). Assays were performed according to the manufacturer's protocol.

SYO1 cells [4] = assay: Cell cycle analysis, Click-iT Plus EdU Flow Cytometry Assay; details: 200 nM or 1 μM, 8 or 13 days, compared to DMSO and lenalidomide
Description: as §5

[5] = test system: non-synovial control cancer cell lines (293T, A549, G401); assay: Growth of non-synovial control cancer cell lines, Example 3; details: FIGS. 5, 6, 7
Description: as §1, §2, §3

[6] = test system: non-synovial control cancer cell lines (RD, HCT116, and Calu6); assay: Crystal violet growth assay, day 14, non-synovial control cancer cell lines, Example 4; details: daily treatment, day 14, crystal violet, FIGS. 8 and 9
Description: as §4

SMILES	growth of synovial sarcoma cell lines [1]	growth of synovial sarcoma cell lines [2]	growth inhibition compared among the test agents ([2]; all synovial cell lines)	numbers of early- and late-apoptotic cells (SYO1 cells [3])	numbers of cells in the S-phase of the cell cycle (SYO1 cells [4])	growth of non-synovial control cancer cell lines [5]	growth of non-synovial control cancer cell lines [6]
COc1cc(-c2cn(C)c(=O)c3cnccc23)cc(OC)c1CN(C)CC(=O)NCCOCCOCCNc1cccc2c1C(=O)N(C1CCC(=O)NC1=O)C2=O (centres unmarked) [Compound A]	inhibition of the growth of the cells	inhibition of the growth of the cells	most significant growth inhibition	increased numbers of early- and late-apoptotic cells	reduced numbers of cells in the S-phase	does not result in inhibition of the growth	did not result in inhibition of the growth
COc1cc(-c2cn(C)c(=O)c3cnccc23)cc(OC)c1CN(C)C [Compound B]	inhibition of the growth of the cells	inhibition of the growth of the cells	–	–	–	does not result in inhibition of the growth	did not result in inhibition of the growth
